# Measurements taken from PubChem BioAssay AID250 (DTP/NCI, 2004).
# “And” between values parts separate entries of the source, which are not always exact repeats. Identical values can stand only once. Toxic doses and inconclusive results are not listed.
# System: BDF1 mice, L1210 leukemia sc, survival T/C
# Assay: NCI In Vivo Anticancer Drug Screen. Data for tumor model L1210 Leukemia (subcutaneous) in B6D2F1 (BDF1) mice
# Details: vehicle: saline, higher = longer survival
# In short: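 Read-out: T/C ratio, i.e. survival or tumor size in treated mice over that in vehicle-treated controls, from mice bearing transplantable tumors.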
compound,measurement,setting,value
O=c1[nH]cc(F)c(=O)[nH]1,T/C,"endpoint: mean survival time, dose: 65.0 mg/kg/injection, schedule: Q07DX009 (sc)",112 % of control
same,T/C,"endpoint: mean survival time, dose: 108.0 mg/kg/injection, schedule: Q07DX009 (sc)",99 % of control
same,T/C,"endpoint: mean survival time, dose: 180.0 mg/kg/injection, schedule: Q07DX009 (sc)",113 % of control
same,T/C,"endpoint: mean survival time, dose: 300.0 mg/kg/injection, schedule: Q07DX009 (sc)",162 % of control
same,T/C,"endpoint: median survival time, dose: 2.5 mg/kg/injection, schedule: Q01DX009 (ip)",93 % of control and 100 % of control
same,T/C,"endpoint: median survival time, dose: 3.0 mg/kg/injection, schedule: Q01DX Z (sc)",104 % of control
same,T/C,"endpoint: median survival time, dose: 3.02 mg/kg/injection, schedule: Q01DX Z (sc)",100 % of control
same,T/C,"endpoint: median survival time, dose: 4.0 mg/kg/injection, schedule: Q01DX Z (sc)",105 % of control
same,T/C,"endpoint: median survival time, dose: 5.0 mg/kg/injection, schedule: Q01DX009 (ip)",94 % of control and 100 % of control and 102 % of control
same,T/C,"endpoint: median survival time, dose: 5.0 mg/kg/injection, schedule: Q01DX009 (sc)",103 % of control
same,T/C,"endpoint: median survival time, dose: 5.0 mg/kg/injection, schedule: Q01DX Z (sc)",108 % of control
same,T/C,"endpoint: median survival time, dose: 5.04 mg/kg/injection, schedule: Q01DX Z (sc)",100 % of control
same,T/C,"endpoint: median survival time, dose: 8.4 mg/kg/injection, schedule: Q01DX009 (ip)",110 % of control
same,T/C,"endpoint: median survival time, dose: 8.4 mg/kg/injection, schedule: Q01DX009 (sc)",114 % of control
same,T/C,"endpoint: median survival time, dose: 8.4 mg/kg/injection, schedule: Q01DX013 (sc)",111 % of control
same,T/C,"endpoint: median survival time, dose: 8.4 mg/kg/injection, schedule: Q01DX Z (sc)",105 % of control and 108 % of control and 116 % of control
same,T/C,"endpoint: median survival time, dose: 10.0 mg/kg/injection, schedule: Q01DX009 (ip)",103 % of control and 109 % of control
same,T/C,"endpoint: median survival time, dose: 14.0 mg/kg/injection, schedule: Q01DX009 (ip)",121 % of control
same,T/C,"endpoint: median survival time, dose: 14.0 mg/kg/injection, schedule: Q01DX013 (sc)",150 % of control
same,T/C,"endpoint: median survival time, dose: 14.0 mg/kg/injection, schedule: Q04DX003 (ip)",100 % of control
same,T/C,"endpoint: median survival time, dose: 14.0 mg/kg/injection, schedule: Q04DX003 (sc)",103 % of control
same,T/C,"endpoint: median survival time, dose: 16.0 mg/kg/injection, schedule: Q01DX Z (sc)",122 % of control
same,T/C,"endpoint: median survival time, dose: 23.0 mg/kg/injection, schedule: Q01DX009 (sc)",154 % of control
same,T/C,"endpoint: median survival time, dose: 23.0 mg/kg/injection, schedule: Q01DX013 (sc)",161 % of control and 163 % of control
same,T/C,"endpoint: median survival time, dose: 23.0 mg/kg/injection, schedule: Q04DX003 (ip)",107 % of control
same,T/C,"endpoint: median survival time, dose: 23.0 mg/kg/injection, schedule: Q04DX003 (sc)",102 % of control
same,T/C,"endpoint: median survival time, dose: 23.3 mg/kg/injection, schedule: Q01DX Z (sc)",108 % of control
same,T/C,"endpoint: median survival time, dose: 38.9 mg/kg/injection, schedule: Q01DX Z (sc)",100 % of control
same,T/C,"endpoint: median survival time, dose: 39.0 mg/kg/injection, schedule: Q01DX009 (ip)",109 % of control
same,T/C,"endpoint: median survival time, dose: 39.0 mg/kg/injection, schedule: Q01DX009 (sc)",121 % of control
same,T/C,"endpoint: median survival time, dose: 39.0 mg/kg/injection, schedule: Q01DX013 (sc)",166 % of control and 167 % of control
same,T/C,"endpoint: median survival time, dose: 39.0 mg/kg/injection, schedule: Q01DX Z (sc)",163 % of control and 175 % of control
same,T/C,"endpoint: median survival time, dose: 64.0 mg/kg/injection, schedule: Q01DX Z (sc)",161 % of control
same,T/C,"endpoint: median survival time, dose: 65.0 mg/kg/injection, schedule: Q01DX009 (ip)",101 % of control
same,T/C,"endpoint: median survival time, dose: 65.0 mg/kg/injection, schedule: Q01DX009 (sc)",107 % of control
same,T/C,"endpoint: median survival time, dose: 65.0 mg/kg/injection, schedule: Q04DX003 (sc)",151 % of control
same,T/C,"endpoint: median survival time, dose: 65.0 mg/kg/injection, schedule: Q07DX009 (sc)",114 % of control
same,T/C,"endpoint: median survival time, dose: 65.0 mg/kg/injection, schedule: Q07DX Z (sc)",115 % of control
same,T/C,"endpoint: median survival time, dose: 108.0 mg/kg/injection, schedule: Q01DX Z (sc)",91 % of control
same,T/C,"endpoint: median survival time, dose: 108.0 mg/kg/injection, schedule: Q04DX003 (ip)",173 % of control
same,T/C,"endpoint: median survival time, dose: 108.0 mg/kg/injection, schedule: Q04DX003 (sc)",187 % of control
same,T/C,"endpoint: median survival time, dose: 108.0 mg/kg/injection, schedule: Q07DX009 (sc)",102 % of control
same,T/C,"endpoint: median survival time, dose: 108.0 mg/kg/injection, schedule: Q07DX Z (sc)",105 % of control
same,T/C,"endpoint: median survival time, dose: 128.0 mg/kg/injection, schedule: Q01DX Z (sc)",155 % of control
same,T/C,"endpoint: median survival time, dose: 180.0 mg/kg/injection, schedule: Q01DX Z (sc)",120 % of control
same,T/C,"endpoint: median survival time, dose: 180.0 mg/kg/injection, schedule: Q04DX003 (ip)",121 % of control
same,T/C,"endpoint: median survival time, dose: 180.0 mg/kg/injection, schedule: Q04DX003 (sc)",184 % of control
same,T/C,"endpoint: median survival time, dose: 180.0 mg/kg/injection, schedule: Q07DX009 (sc)",114 % of control
same,T/C,"endpoint: median survival time, dose: 180.0 mg/kg/injection, schedule: Q07DX Z (sc)",115 % of control
same,T/C,"endpoint: median survival time, dose: 300.0 mg/kg/injection, schedule: Q07DX009 (sc)",169 % of control
same,T/C,"endpoint: median survival time, dose: 300.0 mg/kg/injection, schedule: Q07DX Z (sc)",168 % of control
